Test results published in patent US20060029576A1, “Biological control of pythium disease in crops” (HER MAJESTY THE QUEEN IN RIGHT OF CANADA, THE MINISTER OF …, priority 2004, published 2006).

Legend:
Type in all cases: in vivo
Pythium spp. [1] = experiment: Seed treatment of field pea, field naturally infested with Pythium spp. (2001 field experiments); details: 4 weeks after planting
Protocol: (§1) The selected strains of R. leguminosarum bv. viceae (R12, R20, and R21) effective against Pythium damping-off of sugar beet in indoor experiments were tested for control of damping-off of sugar beet and field pea in fields naturally infested with Pythium spp. at the Lethbridge Research Centre, Alberta. […] (Bardin et al. 2003). The seeds were coated with the bacterial slurry as described previously using 2.4 and 9.5 mL bacterial slurry/100 seeds of sugar beet and field pea, respectively. The seeds were dried overnight at room temperature on a metallic mesh, which was placed on a paper towel to absorb the excess slurry. The number of bacteria coated onto the seeds was similar for the four bacterial strains, ranging from 1.4×10^6±0.2×10^6 to 2.3×10^7±0.2×10^7 cfu/seed for sugar beets and 3.0×10^7±0.3×10^7 to 1.2×10^8±0.4×10^8 cfu/seed for field peas. The coated seeds were then stored at 4° C. until planting. Bacterial counts on the seeds were determined by vortexing five coated seeds in 5 mL of distilled sterile water for 30 seconds, and by plating serial dilutions on TY agar medium in Petri dishes for Rhizobium strains and on PDA in Petri dishes for P. fluorescens. […] Seedling emergence was recorded 4 weeks after planting and was compared with the uninoculated and fungicide controls. […]

Pythium spp. [2] = experiment: Seed treatment of sugar beet, field naturally infested with Pythium spp. (2001 field experiments); details: 4 weeks after planting
Protocol: as §1

[3] = tested on: Pythium spp. (predominantly Pythium sp. ‘group G’); experiment: Seed treatment of field pea cv. Trapper, damping-off field experiment 2004; details: for Plant Height (cm): 6-node stage (4 weeks after planting)
Protocol: (§2) The strains of Rhizobium leguminosarum bv. viceae used for the study were 99A1, R12, R20, and R21. Strain 99A1 was originated from the commercial pea inoculant produced by Agrium, Inc. Calgary, Alberta. Bacterial cultures were grown on tryptone-yeast agar (TYA) (Beringer, 1974) in Petri dishes for 48 h at room temperature (20±2° C.). The resulting colonies were suspended in 5 ml per dish of 1% methyl cellulose (Sigma-Aldrich, Milwaukee, Wis.) in sterile distilled water, and scraped gently with a spatula to obtain bacterial slurries. Seeds of field pea cv. Trapper and lentil cv. Laird were soaked for 20 minutes in the slurries, spread on a metallic mesh sheet with paper towel underneath to absorb the excess slurry, and air-dried overnight under a fume hood. Enumeration of bacteria coated onto seeds was done by placing 5 seeds in a test tube with 5 ml of sterile distilled water, vortexing for 30 sec, and plating serial dilutions on TYA, 0.1 ml per 9-cm dish. After incubation at room temperature for 3 days, bacterial colonies developed in each dish were counted. There were two replicates for each treatment.
(§3) Field experiments were conducted at the Agriculture and Agri-Food Canada Research Centre near Lethbridge, Alberta, Canada, in a field naturally infested with Pythium spp. (predominantly Pythium sp. ‘group G’). For the pea experiment, seeds were planted using a plot seeder on 28 May 2004, in 4-row plots with a row length of 5 m, a row spacing of 22.5 cm, and a plant spacing of 5 cm (i.e. 20 seeds/m). Untreated seeds and fungicide-treated seeds (Thiram™ at the rate of 30 g/25 kg seed) (Gustafson; Calgary, Alberta, Canada) were used as controls. Treatments were arranged in a randomized block design with 6 replicates. For the lentil experiment, seeds were planted on the same date and using the same parameters as for field pea.
(§4) Seedling emergence for each plot was determined. The number of healthy seedlings and the number of wilted seedlings were counted in the middle 3 m of each row, and the percent loss due to pre-emergent and post-emergent damping-off were calculated, as well as the final stand establishment. The causal agent of seedling death was determined by collecting 10 non-emerged seedlings and all of the wilted seedlings from each plot, washing in running water, surface sterilizing in 70% ethanol for 90 sec, incubating on potato dextrose agar (PDA) in Petri dishes at room temperature for 7 days, and examining the organisms derived from each sample. Results of reisolation of diseased seedlings were used to calculate the incidence of damping-off due to Pythium spp. for each plot.
(§5) Seedling height for each plot was determined (6-node stage for peas; 5-node stage for lentils). For each row, ten seedlings were randomly selected and the distance from the first node to the terminal branch of each seedling was measured.
(§6) Differences between treatments for incidence of damping-off, seedling emergence and seedling height data were analyzed for statistical significance using analysis of variance (ANOVA) and means of treatments for each set of data were separated using Duncan's multiple range test at the P=0.05 level. All statistical analyses were done using SAS Statistical Analysis Software, Version 8.2 (SAS Institute Inc., Cary, N.C. 2001).

[4] = tested on: Pythium spp. (predominantly Pythium sp. ‘group G’); experiment: Seed treatment of lentil cv. Laird, damping-off field experiment 2004
Protocol: as §2, §3, §4, §5, §6

SMILES: CN(C)C(=S)SSC(=S)N(C)C [Thiram]
- Emergence (%) Pea (Pisum sativum) August 2001 (Pythium spp. [1]; untreated control 12.8): 48.3a %
- Emergence (%) Pea (Pisum sativum) May 2001 (Pythium spp. [1]; untreated control 41.4): 71.4a %
- Emergence (%) Sugar beet (Beta vulgaris) August 2001 (Pythium spp. [2]; untreated control 6.5): 27.0a %
- Emergence (%) Sugar beet (Beta vulgaris) May 2001 (Pythium spp. [2]; untreated control 10.0): 28.6a %
- Plant Height (cm) ([3]; control 11.1): 14.6 cm
- Plant Height (cm) ([3]; control 11.1, listed as Fungicide (Thiram)): 14.6 c cm
- Damping-off (%) Post-emergent ([3]; control 0.2): 0.6%
- Final Stand (%) ([3]; control 37.8): 79.1 c %
- Damping-off (%) by Pythium ([3]; control 55.4, listed as Fungicide (Thiram)): 16.7 c %
- Damping-off (%) by Pythium ([3]; control 55.4, listed as fungicide): 16.7%
- Damping-off (%) Pre-emergent ([3]; control 62.0): 20.3%
- Damping-off (%) Pre-emergent ([3]; control 62.0, listed as Fungicide (Thiram)): 20.3 c %
- Plant Height (cm) ([4]; 5-node stage (4 weeks after planting), control 11.2): 11.4 a cm
- Damping-off (%) Post-emergent ([4]; control 2.7): 2.6%
- Damping-off (%) by Pythium ([4]; control 35.3, listed as Fungicide (Thiram)): 22.8 d %
- Damping-off (%) by Pythium ([4]; control 35.3, listed as fungicide): 22.8%
- Damping-off (%) Pre-emergent ([4]; control 46.3): 34.2%
- Damping-off (%) Pre-emergent ([4]; control 46.3, listed as Fungicide (Thiram)): 34.2 c %
- Final Stand (%) ([4]; control 51.0): 63.2 d %
